# Tests used:
# CD4+ T cells = test: Exogenous autologous healthy donor restimulation assay, TNFα and IFNγ production by CD4+ T cells; assay type: cell-based, human; set-up: Frequency (TNFα+ IFNγ+ CD4 T cells): unit not given here; settings: donor independent, peptide pool 10 μg/mL, healthy donors; for Fold change (CD4+) vs. DMSO: maximum CD4+ T-cell response (TNFα and IFNγ); for Frequency (TNFα+ IFNγ+ CD4 T cells): maximum CD4+ T-cell response
# Description: (§1) Immunogenicity responses were measured by estimating TNFα IFNγ double positive cells in the CD4+ and/or CD8+ T-cell populations. A response is considered positive if TNFα IFNγ double positive fraction was greater than or equal to three-fold over unstimulated cells (DMSO negative control) with a minimum frequency >=0.01%. […]
# (§2) Overlapping 15-mer peptides were designed to span each indicated neoantigen. Their ability to activate T cells was assessed using known methods, such as the assay defnied as exogenous autologous normal donor restimulation assay. The peptides were used as pools using TNFα and IFNγ production by CD8^+ and CD4^+ T cells as a readout. Maximum frequency of CD8^+TNFα^+IFNγ^+ and CD4^+TNFα^+IFNγ^+ T cells and maximum fold change over background for each pool of peptides were analyzed, which were calculated as the highest frequency of CD8^+ TNFα^+IFNγ^+ and CD4^+ TNFα^+IFNγ^+ T cells and resulting fold change across the normal donors evaluated for the peptide.
# (§3) CD1c+Dendritic Cells (CD1c+DC) isolated from human healthy PBMCs were thawed using media (IMDM (Gibco) supplemented with glutamine, HEPES, 5% human serum (Sigma), and 1× Pen-Strep). DC cells were resuspended in media supplemented with IL-4 (Peprotech, 20 ng/mL) and GM-CSF (Gibco, 20 ng/mL), plated in 6 well microplates, and rested overnight at 37° C. and 5% CO2 incubator. The following day, DC cells were counted and plated in a 96 well round bottom microplate at a concentration of 30,000 viable cells per well. Lyophilized neoantigen peptide pools (15-mer peptides with 8-mer overlapping peptide sequences) were solubilized in 100% DMSO with a stock concentration of 20 mg/mL Neoantigen peptides pools were added to DCs for a final concentration of 10 μg/mL and rested for 2 hours at 37° C. and 5% CO2 incubator. CEF Peptide Pool “Plus” (Cellular Technologies, Ltd.) was utilized as a positive control (each viral peptide at a final concentration of 4 ug/ml) and DMSO at the same final concentration (0.05%) as the experimental peptides was utilized as a negative control. After 2 hours, DC cells were irradiated with 50 gray of ionizing radiation. Autologous CD3+ Pan-T cells isolated from human normal PBMCs were thawed using media. Following irradiation, autologous Pan-T cells were added to the irradiated DCs at 300,000 viable cells per well. Human IL-15 (Peprotech) was added to all wells at final concentration of 10 ng/ml. Plates were incubated at 37° C. and 5% CO2 incubator for a total of 12 days. Media was refreshed every 2-3 days with IL-15 (R&D System, 10 ng/mL final concentration) and IL-2 (R&D systems, 10 IU/mL final concentration).
# (§4) On Day 11, cells were re-stimulated with identical experimental peptide pools or controls, at same concentration as peptide stimulation on Day 1. Protein Inhibitor Cocktail (eBioscience) was added to every well and plate was incubated overnight for 14-16 hours at 37° C. and 5% CO2 incubator. On Day 12, cells were stained for surface and intracellular flow cytometry analysis. The cells were washed with PBS and stained with Live/Dead Fixable Aqua Dead Cell stain (Thermo-Fisher). Following the live/dead stain, cells were blocked using Biotin-Free Fc Receptor Blocker (Accurate Chemical & Scientific Corp). Extracellular cellular flow panel (1 μL/antibody per well in 50 μL) consisted of CD3 PerCP-Cy5.5 (Biolegend), CD4 BV421 (Biolegend), and CD8 APC-Cy7 (Biolegend). After extracellular staining, cells were fixed and permeabilized using Foxp3/Transcription Factor Staining Buffer Set (eBioscience) and stained for intracellular proteins (1:50 dilution) using TNFα FITC (R&D Systems) and IFNγ BV785 (Biolegend). Cells were washed and resuspended in stain buffer, analyzed, and recorded in a BD Celesta flow cytometer.
# (§5) Flow cytometry analysis was conducted on FlowJo v10.6 software. Cells were gated on live, singlet, CD3+, CD4+ and CD8+ T cells. The CD8+ and CD4+ T cells were analyzed for TNFα and IFNγ expression. […]
# CD8+ T cells = test: Exogenous autologous healthy donor restimulation assay, TNFα and IFNγ production by CD8+ T cells; assay type: cell-based, human; set-up: Frequency (TNFα+ IFNγ+ CD8 T cells): unit not given here; settings: for Fold change (CD8+) vs. DMSO: maximum CD8+ T-cell response (TNFα and IFNγ); for Fold change (CD8+) vs. DMSO / Frequency (TNFα+ IFNγ+ CD8 T cells): donor independent, peptide pool 10 μg/mL, healthy donors; for Frequency (TNFα+ IFNγ+ CD8 T cells): maximum CD8+ T-cell response; for Immunogenic (yes/no): positive if CD8+ and/or CD4+ double positive TNFα/IFNγ frequency >=3-fold over DMSO and at least 0.01%
# Description: as §1, §2, §3, §4, §5
Sequence,Fold change (CD4+) vs. DMSO (CD4+ T cells),Frequency (TNFα+ IFNγ+ CD4 T cells) (CD4+ T cells),Fold change (CD8+) vs. DMSO (CD8+ T cells),Frequency (TNFα+ IFNγ+ CD8 T cells) (CD8+ T cells),Immunogenic (yes/no) (CD8+ T cells)
"PPTAAASQTMQIFVKT [FUS31, gene fusion FOSB-> UBC]",0.7,0.004,14.72,0.022,Yes
"PKVFPKNQVISLIPKAQEDPEHT [AS127, alternative splicing, ST3GAL6]",7.179,0.14,1.44,0.08,Yes
QLKKMVSKVRLRRARLPGRAHRSLPRPVESVPAQPSKLPRRAGSPGAVLSDLLRTPPRGACRLVRESPYGSWEGGGRRQSTKAWSGGYLTPAAHPPSSLPLSLELSVGQCSFSFVFINTNKGSYLVVDLRQSSTPVPI [AS11],69.02,0.45,4,0.033,Yes
"IMLIGNKSNCQKQLLRDMKILNEFYHGLILTLQLS [AS126, alternative splicing, RAB2B]",6.861,0.04,161.72,0.49,Yes
"GEKILFIRVKFYFSLILFLWEDSEFELGEI [AS9, alternative splicing, GAS2]",20.874,0.099,358.4,1.99,Yes
"QLSVVTRDDYNSSELK [AS87, alternative splicing, BMP6]",4.45,0.016,44.64,1.25,Yes
"AKFWSDISINRAPSFG [AS94, alternative splicing, TTLL7]",62.53,0.63,97.14,2.72,Yes
"SGLLMNTLTVLILYFLY [FUS9, gene fusion EAF2-> SLC15A2]",3.08,0.031,5.53,0.13,Yes
"TVPASQKLSCSLDPKHLRQFHL [AS30, alternative splicing, BLNK]",2.23,0.012,13.86,0.082,Yes
"FALMASLGIPQTMAA [FUS56, gene fusion ZNF772-> VN1R1]",115.03,0.75,2.73,0.007,Yes
"NRVTALTQN [FUS35, gene fusion TMED3-> KIAA1024]",2.28,0.019,3.24,0.049,Yes
"QILQQALKIAFLKVVVPLKLHPYSFCH [AS132, alternative splicing, USP25]",181.82,0.17,4.73,0.026,Yes
"DVAVICSGVPVADVS [FUS5, gene fusion CD5L-> FCRL1]",6.97,0.021,4.59,0.079,Yes
"ISKRLKSRRRSGWQLNRAGNRGLSPGLGLFPRGCCRWGGAYTRLPSANQT [FUS20, gene fusion PTGES2-> SLC25A25-AS1]",11.664,0.068,511.064,4.85,Yes
"FGTSHMMVRHF [AS33, alternative splicing, CFAP54]",2.78,0.009,47.27,0.49,Yes
"LARQISFKSLI [FUS14, gene fusion UBE2J1-> GABRR2]",256.93,0.19,3.27,0.005,Yes
"CRERGLQEAEGDVAAL [FUS40, gene fusion KLF2-> TPM4]",1.26,0.024,18.3,0.43,Yes
"PQEEVPFRSITTELFPSMC [FUS27, gene fusion TBCEL-> TECTA]",3.3,0.038,3.38,0.009,Yes
"VYYLYKNVAYKGSDID [AS86, alternative splicing, ATP10B]",12.54,0.019,2.7,0.018,Yes
"DLFDEFDNSRLVSRSWFFFYLRNKWNLALGF [AS24, alternative splicing, ST3GAL6]",613.88,3.14,1300,0.13,Yes
"RQLQQQLSSLSGPEGVPFLKLWCLDDLLSTLLGTCRCPSRAQF [FUS57, gene fusion MED12-> NLGN3]",11.65,0.24,17.2,0.14,Yes
"SQKQPALKCLLRNNRP [AS84, alternative splicing, ANKRD36]",10.66,0.019,162.14,4.54,Yes
"YGVYVINQKGHSGCIWSMDGEGRLETAWPVWKRGRCPGKRR [AS15, alternative splicing, B4GALT2]",2469.136,0.9,290,0.029,Yes
"IEKSISARITEQ [FUS36, gene fusion TNFRSF17-> SNX29]",4.69,0.008,8.7,0.013,Yes

# — patent US20210261636A1, “NEOANTIGENS EXPRESSED IN MULTIPLE MYELOMA AND THEIR USES” (Janssen Biotech, Inc., priority 2020, published 2021)
